In the CheMixHub viscosity set:

Experiment: xn = mol fraction of the nth substance listed

O=C1CCCC1 + Clc1ccccc1
298.15 K, 101 kPa
Conditions | viscosity [mPa·s]
x2 = 0.0165 | 1.122
x2 = 0.0498 | 1.117
x2 = 0.1006 | 1.108
x2 = 0.1542 | 1.097
x2 = 0.2087 | 1.084
x2 = 0.266 | 1.068
x2 = 0.3245 | 1.05
x2 = 0.3841 | 1.023
x2 = 0.4488 | 0.993
x2 = 0.5148 | 0.959
x2 = 0.5836 | 0.92
x2 = 0.6542 | 0.882
x2 = 0.739 | 0.835
x2 = 0.8057 | 0.802
x2 = 0.8869 | 0.769
x2 = 0.9704 | 0.745

ClC=C(Cl)Cl + CCC(C)(C)O
298.15 K, 101 kPa
Conditions | viscosity [mPa·s]
x2 = 0.0494 | 0.556
x2 = 0.101 | 0.576
x2 = 0.1994 | 0.626
x2 = 0.2988 | 0.69
x2 = 0.3984 | 0.779
x2 = 0.4991 | 0.909
x2 = 0.5974 | 1.08
x2 = 0.7 | 1.353
x2 = 0.7976 | 1.723
x2 = 0.9001 | 2.365

NC1CCCCC1 + CCCO
viscosity [mPa·s], 101 kPa
Conditions | 293.15 K | 298.15 K | 303.15 K
x1 = 0.0549 | 2.253 | 2.004 | 1.773
x1 = 0.102 | 2.29 | 2.036 | 1.803
x1 = 0.1983 | 2.392 | 2.12 | 1.871
x1 = 0.3117 | 2.512 | 2.213 | 1.946
x1 = 0.3529 | 2.548 | 2.241 | 1.968
x1 = 0.4031 | 2.578 | 2.266 | 1.985
x1 = 0.4387 | 2.588 | 2.274 | 1.996
x1 = 0.4926 | 2.589 | 2.271 | 1.999
x1 = 0.5491 | 2.568 | 2.261 | 1.992
x1 = 0.6111 | 2.534 | 2.229 | 1.964
x1 = 0.6604 | 2.485 | 2.19 | 1.928
x1 = 0.704 | 2.454 | 2.168 | 1.91
x1 = 0.7984 | 2.349 | 2.078 | 1.837
x1 = 0.8844 | 2.241 | 1.991 | 1.766
x1 = 0.9389 | 2.197 | 1.955 | 1.735

CC(O)CO (stereo unspecified) + CCCCCCO
101 kPa
Conditions | viscosity [mPa·s]
303.15 K, x2 = 0.6309 | 6.725
308.15 K, x2 = 0.0771 | 20.05

ClC=C(Cl)Cl + CC#N
Conditions | viscosity [mPa·s]
298.15 K, 101 kPa, x1 = 0.0501 | 0.358
298.15 K, 101 kPa, x1 = 0.099 | 0.373
298.15 K, 101 kPa, x1 = 0.2003 | 0.406
298.15 K, 101 kPa, x1 = 0.3001 | 0.434
298.15 K, 101 kPa, x1 = 0.3984 | 0.461
298.15 K, 101 kPa, x1 = 0.4976 | 0.485
298.15 K, 101 kPa, x1 = 0.5968 | 0.504
298.15 K, 101 kPa, x1 = 0.7206 | 0.526
298.15 K, 101 kPa, x1 = 0.7798 | 0.532
298.15 K, 101 kPa, x1 = 0.9038 | 0.541
298.15 K, 101 kPa, x2 = 0.0708 | 0.524
298.15 K, 101 kPa, x2 = 0.1846 | 0.515
298.15 K, 101 kPa, x2 = 0.3572 | 0.494
298.15 K, 101 kPa, x2 = 0.4854 | 0.471
298.15 K, 101 kPa, x2 = 0.5616 | 0.458
298.15 K, 101 kPa, x2 = 0.6719 | 0.433
298.15 K, 101 kPa, x2 = 0.775 | 0.403
298.15 K, 101 kPa, x2 = 0.9121 | 0.369
303.15 K, 101.32 kPa, x2 = 0.0893 | 0.5209
303.15 K, 101.32 kPa, x2 = 0.1803 | 0.5171
303.15 K, 101.32 kPa, x2 = 0.2502 | 0.5072
303.15 K, 101.32 kPa, x2 = 0.3697 | 0.4877
303.15 K, 101.32 kPa, x2 = 0.5273 | 0.4539
303.15 K, 101.32 kPa, x2 = 0.6422 | 0.4238
303.15 K, 101.32 kPa, x2 = 0.7089 | 0.4071
303.15 K, 101.32 kPa, x2 = 0.7814 | 0.3824
303.15 K, 101.32 kPa, x2 = 0.8363 | 0.3654
303.15 K, 101.32 kPa, x2 = 0.9308 | 0.3451
308.15 K, 101 kPa, x2 = 0.0708 | 0.483
308.15 K, 101 kPa, x2 = 0.1846 | 0.471
308.15 K, 101 kPa, x2 = 0.3572 | 0.451
308.15 K, 101 kPa, x2 = 0.4854 | 0.43
308.15 K, 101 kPa, x2 = 0.5616 | 0.417
308.15 K, 101 kPa, x2 = 0.6719 | 0.396
308.15 K, 101 kPa, x2 = 0.775 | 0.37
308.15 K, 101 kPa, x2 = 0.9121 | 0.341
318.15 K, 101 kPa, x2 = 0.0708 | 0.443
318.15 K, 101 kPa, x2 = 0.1846 | 0.431
318.15 K, 101 kPa, x2 = 0.3572 | 0.413
318.15 K, 101 kPa, x2 = 0.4854 | 0.393
318.15 K, 101 kPa, x2 = 0.5616 | 0.384
318.15 K, 101 kPa, x2 = 0.6719 | 0.364
318.15 K, 101 kPa, x2 = 0.775 | 0.342
318.15 K, 101 kPa, x2 = 0.9121 | 0.315

ClC=C(Cl)Cl + CC(C)(C)O
303.15 K, 101.3 kPa
Conditions | viscosity [mPa·s]
x1 = 0.1042 | 1.951
x1 = 0.2103 | 1.329
x1 = 0.3164 | 1.018
x1 = 0.4143 | 0.856
x1 = 0.5147 | 0.758
x1 = 0.6204 | 0.689
x1 = 0.7102 | 0.648
x1 = 0.8036 | 0.608
x1 = 0.9088 | 0.562
